According to ChEMBL document CHEMBL5131397, “Discovery and Optimization of Pyrazole Amides as Inhibitors of ELOVL1” (J Med Chem, 2021):

How the values were obtained:
[1] = Intrinsic clearance in rat hepatocytes assessed per million cells; format: ADME, cell-based, Hepatocyte; details: read-out: CLH
[2] = Intrinsic clearance in human hepatocytes assessed per million cells; format: ADME, cell-based, Hepatocyte; details: read-out: CLH
[3] = molecular target: T1, Very long chain fatty acid elongase 1 (Homo sapiens, UniProt Q9BW60); assay: Inhibition of ELOVL1 (unknown origin) using C22-acyl-CoA as substrate by radiometric enzyme assay
T1 sequence (Q9BW60 whole entry): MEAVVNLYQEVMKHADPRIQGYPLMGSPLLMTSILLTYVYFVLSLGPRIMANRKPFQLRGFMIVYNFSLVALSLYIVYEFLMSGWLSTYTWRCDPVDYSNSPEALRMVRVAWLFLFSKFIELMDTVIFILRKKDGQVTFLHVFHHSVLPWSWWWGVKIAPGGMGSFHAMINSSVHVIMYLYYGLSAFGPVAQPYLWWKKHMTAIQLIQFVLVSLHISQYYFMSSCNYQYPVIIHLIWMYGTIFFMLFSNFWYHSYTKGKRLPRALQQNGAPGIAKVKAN

[4] = molecular target: T1, Very long chain fatty acid elongase 1; assay: Inhibition of ELOVL1 in human HEK2936E cells assessed as reduction of C26:0 LPC synthesis incubated for 48 hrs by cellular assay; format: cell-based
[5] = molecular target: T2, Very long chain fatty acid elongase 7 (Homo sapiens, UniProt A1L3X0); assay: Inhibition of ELOVL7 (unknown origin) using C18-acyl-CoA as substrate by radiometric enzyme assay
T2 sequence (A1L3X0 whole entry): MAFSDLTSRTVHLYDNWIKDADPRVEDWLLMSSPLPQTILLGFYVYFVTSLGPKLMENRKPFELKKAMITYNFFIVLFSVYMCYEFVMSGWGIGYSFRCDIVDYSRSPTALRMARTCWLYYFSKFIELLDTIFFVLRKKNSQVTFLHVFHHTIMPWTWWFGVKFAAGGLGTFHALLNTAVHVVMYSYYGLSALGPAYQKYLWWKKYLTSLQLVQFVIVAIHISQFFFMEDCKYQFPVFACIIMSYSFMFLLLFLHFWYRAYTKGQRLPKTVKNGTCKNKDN

[6] = molecular target: T3, Very long chain fatty acid elongase 6 (Homo sapiens, UniProt Q9H5J4); assay: Inhibition of ELOVL6 (unknown origin) using C16-acyl-CoA as substrate by radiometric enzyme assay
T3 sequence (Q9H5J4 whole entry): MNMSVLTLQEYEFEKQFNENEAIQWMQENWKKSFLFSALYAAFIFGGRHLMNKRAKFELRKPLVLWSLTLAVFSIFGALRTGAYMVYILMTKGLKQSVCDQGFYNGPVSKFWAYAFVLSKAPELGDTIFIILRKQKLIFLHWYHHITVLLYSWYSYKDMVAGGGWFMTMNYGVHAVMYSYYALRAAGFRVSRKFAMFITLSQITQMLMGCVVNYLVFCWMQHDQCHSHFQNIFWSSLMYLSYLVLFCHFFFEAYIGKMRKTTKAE

[7] = Reduction in C26:0 LPC level in ABCD1 (-/y) knock out mouse brain at 0.4 to 2 mg/kg, ip administered daily measured after 4.5 months by LC-MS/MS analysis; format: functional; parameters: scale not given: the % may be the effect or the level left; details: dose 0.4-2 mg/kg, 3285 h

SMILES	hepatocyte CLint [1]	hepatocyte CLint [2]	IC50 [3]	IC50 [4]	IC50 [5]	IC50 [6]	Activity [7]
O=C(Nc1ccn(-c2cncc(F)c2)n1)C1(c2ccccc2F)CC1	68 µL/min/1e6 cells	10 µL/min/1e6 cells	1200 nM	18 nM			
O=C(Nc1ccn(-c2ncns2)n1)C1(c2ccccc2F)CC1	25 µL/min/1e6 cells	14 µL/min/1e6 cells	400 nM	18 nM			
COc1cccc(C2(C(=O)Nc3ccn(-c4cncc(F)c4)n3)CC2)c1	355 µL/min/1e6 cells	19 µL/min/1e6 cells	1500 nM	170 nM			
O=C(Cc1ccccc1)Nc1nc(-c2ccccc2)cs1	398 µL/min/1e6 cells	127 µL/min/1e6 cells	4000 nM	500 nM			
O=C(Cc1ccccc1F)Nc1cccc(-c2ccccc2)n1			> 50000 nM	> 5000 nM			
O=C(Cc1ccccc1F)Nc1nc(-c2ccccc2)cs1	281 µL/min/1e6 cells	102 µL/min/1e6 cells	3200 nM	280 nM			
O=C(Nc1ccn(-c2cncc(F)c2)n1)C1(c2ccccc2Cl)CC1	61 µL/min/1e6 cells	8 µL/min/1e6 cells	4500 nM	110 nM			
CC1(C)CC1(C(=O)Nc1ccn(-c2ccccc2)n1)c1ccccc1 (stereo not drawn)	239 µL/min/1e6 cells	50 µL/min/1e6 cells	4400 nM	900 nM			
O=C(Nc1ccn(-c2cncc(F)c2)n1)C1(c2cccc(F)c2)CC1	97 µL/min/1e6 cells	8 µL/min/1e6 cells	1600 nM	190 nM			
O=C(Nc1ccn(-c2cncc(F)c2)n1)C1(c2ccc(Cl)cc2)CC1	133 µL/min/1e6 cells	5 µL/min/1e6 cells	2400 nM	340 nM			
O=C(Cc1ccccc1F)Nc1cnn(-c2ccccc2)n1	518 µL/min/1e6 cells	101 µL/min/1e6 cells	> 8000 nM	900 nM			
COc1ccccc1C1(C(=O)Nc2ccn(-c3cncc(F)c3)n2)CC1			> 50000 nM	> 5000 nM			
C[C@@H](C(=O)Nc1ccn(-c2ccccc2)n1)c1ccccc1	313 µL/min/1e6 cells	56 µL/min/1e6 cells	1600 nM	210 nM			
O=C(Nc1ccn(-c2ccnc(C(F)(F)F)c2)n1)C1(c2ccccc2F)CC1	51 µL/min/1e6 cells	8 µL/min/1e6 cells	> 50000 nM	> 5000 nM			
CN(C)C(C(=O)Nc1ccn(-c2ccccc2)n1)c1ccccc1 (stereo not drawn)			> 50000 nM	1700 nM			
CCOC(C(=O)Nc1ccn(-c2ccccc2)n1)c1ccccc1 (stereo not drawn)			> 50000 nM	> 5000 nM			
Cc1ccccc1C1(C(=O)Nc2ccn(-c3cncc(F)c3)n2)CC1	400 µL/min/1e6 cells	40 µL/min/1e6 cells	7500 nM	400 nM			
Cc1cc(-n2ccc(NC(=O)C3(c4ccccc4F)CC3)n2)ccn1	78 µL/min/1e6 cells	7 µL/min/1e6 cells	21000 nM	1600 nM			
O=C(Cc1ccccc1F)Nc1ccnc(-c2ccccc2)n1			> 50000 nM				
O=C(Nc1ccn(-c2cncc(F)c2)n1)C1(c2cc(F)ccc2F)CC1	25 µL/min/1e6 cells	6 µL/min/1e6 cells	550 nM	170 nM			
O=C(Cc1ccccc1F)Nc1nc(-c2ccnc(F)c2)cs1			4400 nM		> 100000 nM	> 100000 nM	
O=C(Nc1ccn(-c2cncc(F)c2)n1)C1(c2ccc(F)cc2)CC1	88 µL/min/1e6 cells	4 µL/min/1e6 cells	830 nM	100 nM			
O=C(Cc1ccccc1F)Nc1ncn(-c2ccccc2)n1			> 50000 nM	> 5000 nM			
O=C(Nc1ccn(-c2ccncc2)n1)C1(c2ccccc2F)CC1	80 µL/min/1e6 cells		1500 nM	80 nM			
Cc1cc(OCC(=O)O)cc(C)c1Cc1ccc(O)c(C(C)C)c1 [SOBETIROME]							21%

SMILES	hepatocyte CLint [1]	hepatocyte CLint [2]	IC50 [3]	IC50 [4]	IC50 [5]	IC50 [6]	Activity [7]
O=C(Cc1ccccc1F)Nc1ccn(-c2ccccc2)n1	182 µL/min/1e6 cells	55 µL/min/1e6 cells	1600 nM	60 nM			
O=C(Nc1ccn(-c2cncc(F)c2)n1)C1(c2c(F)cccc2F)CC1	13 µL/min/1e6 cells	4 µL/min/1e6 cells	1200 nM	17 nM			
O=C(Nc1ccn(-c2ccccc2)n1)C1(c2ccccc2)CC1	111 µL/min/1e6 cells	38 µL/min/1e6 cells	500 nM	20 nM			
O=C(Nc1ccn(-c2ccccc2)n1)C1(c2ccccc2)CC1(F)F (stereo not drawn)	278 µL/min/1e6 cells	194 µL/min/1e6 cells	980 nM	140 nM			
O=C(Nc1ccn(-c2ccc(F)nc2)n1)C1(c2ccccc2F)CC1	23 µL/min/1e6 cells	6 µL/min/1e6 cells	800 nM	23 nM			
O=C(Nc1ccn(-c2cncc(F)c2)n1)C1(c2cccc(F)c2F)CC1	54 µL/min/1e6 cells	6 µL/min/1e6 cells	1300 nM	140 nM			
O=C(Nc1nc(-c2ccncc2)cs1)C1(c2ccccc2)CC1			1800 nM		> 100000 nM	> 100000 nM	
CC(C)(C(=O)Nc1ccn(-c2ccccc2)n1)c1ccccc1	262 µL/min/1e6 cells	18 µL/min/1e6 cells	2700 nM	300 nM			
COc1ccc(C2(C(=O)Nc3ccn(-c4cncc(F)c4)n3)CC2)cc1	103 µL/min/1e6 cells	11 µL/min/1e6 cells	3700 nM	640 nM			
C[C@H](C(=O)Nc1ccn(-c2ccccc2)n1)c1ccccc1	308 µL/min/1e6 cells	37 µL/min/1e6 cells	2000 nM	38 nM			
N#Cc1cccc(C2(C(=O)Nc3ccn(-c4cncc(F)c4)n3)CC2)c1	60 µL/min/1e6 cells	4 µL/min/1e6 cells	2300 nM	310 nM			
O=C(Cc1ccccc1F)Nc1cnn(-c2ccccc2)c1			> 50000 nM	> 5000 nM			
COc1cc(-n2ccc(NC(=O)C3(c4ccccc4F)CC3)n2)ccn1	130 µL/min/1e6 cells	11 µL/min/1e6 cells	1200 nM	50 nM			
O=C(Cc1ccccc1F)Nc1nccc(-c2ccccc2)n1			> 50000 nM	> 5000 nM			
O=C(Cc1ccccc1F)Nc1ncc(-c2ccccc2)o1			> 50000 nM				
Nc1cc(-n2ccc(NC(=O)C3(c4ccccc4F)CC3)n2)ccn1	54 µL/min/1e6 cells	9 µL/min/1e6 cells	> 20000 nM	1900 nM			
O=C(Nc1ccn(-c2ccccc2)n1)C1(c2ccccc2)COC1	32 µL/min/1e6 cells	31 µL/min/1e6 cells	8200 nM	260 nM			
O=C(Nc1ccn(-c2cncc(F)c2)n1)C1(c2ccccc2)CC1	50 µL/min/1e6 cells	7 µL/min/1e6 cells	560 nM	22 nM			
O=C(Nc1ccn(-c2ccncn2)n1)C1(c2ccccc2F)CC1	59 µL/min/1e6 cells	14 µL/min/1e6 cells	900 nM	30 nM			
CC[C@@H](C(=O)Nc1ccn(-c2ccccc2)n1)c1ccccc1	123 µL/min/1e6 cells	88 µL/min/1e6 cells	9500 nM	650 nM			
O=C(Nc1nc(-c2ccccc2)cs1)C1CCCO1 (stereo not drawn)			30000 nM		> 100000 nM	> 100000 nM	
O=C(Nc1ccn(-c2ccccc2)n1)C1(c2ccccc2F)CC1	237 µL/min/1e6 cells	30 µL/min/1e6 cells	500 nM	12 nM			
O=C(Cc1ccccc1)Nc1ccn(-c2ccccc2)n1	519 µL/min/1e6 cells	90 µL/min/1e6 cells	2700 nM	70 nM			
N#Cc1ccccc1C1(C(=O)Nc2ccn(-c3cncc(F)c3)n2)CC1	13 µL/min/1e6 cells	5 µL/min/1e6 cells	23000 nM	2500 nM			
N#Cc1ccc(C2(C(=O)Nc3ccn(-c4cncc(F)c4)n3)CC2)cc1	8 µL/min/1e6 cells	5 µL/min/1e6 cells	2200 nM	110 nM			
